Reference: patent US8524304B2, “High-potency sweetener composition with probiotics/prebiotics and compositions sweetened therewith” (The Coca-Cola Company, priority 2005, dated 2013)

Columns and labels:
[1] = Rate of dissolution of rebaudioside A polymorph and amorphous forms in H2O at 25° C.; format: physicochemical
[2] = format: physicochemical
Procedure: A solution of rebaudioside A (>97% pure by HPLC ) was prepared in double distilled water (12.5 gm in 50 mL, 25% concentration) by stirring the mixture at 40° C. for 5 minutes. An amorphous form of rebaudioside A was formed by immediately using the clear solution for spray drying with the Lab-Plant spray drier SD-04 instrument (Lab-Plant Ltd., West Yorkshire, U.K.). The solution was fed through the feed pump into the nozzle atomizer which atomized it into a spray of droplets with the help of a constant flow of nitrogen/air. […] This dry powder (11-12 g, H2O 6.74%) was discharged continuously from the drying chamber and was collected in a bottle.

[3] = Sensory evaluation of sweetness linger by a panel of experts; format: in vivo; parameters: key: 0: no sweetness linger; 1: very slight sweetness linger; 2: slight sweetness linger; 3: moderate sweetness linger; 4: moderately high sweetness linger; 5: high sweetness linger; conditions: scale 0-5
Procedure: Sensory evaluation of the samples prepared in Example Set G was carried out under the following protocol, similar to that described hereinabove. In this test protocol, none of the samples were swallowed. All samples were expectorated and the mouth was rinsed with water after the tasting. Immediately upon sensing maximal sweetness, the sample was expectorated, the mouth was rinsed with water and the rate of sweetness decay (“Sweetness Linger”) was measured, where attention was focused on the sweetness 3-4 min after the water rinse. After sample tasting was complete, a salty oyster cracker was chewed followed by a water rinse, and at least 5 minutes followed before tasting the next sample. The sweetness linger was rated by a panel of experts in the sensory evaluation of foods and beverages using the following scale: 0=no sweetness linger, 1=very slight sweetness linger, 2=slight sweetness linger, 3=moderate sweetness linger, 4=moderately high sweetness linger, 5=high sweetness linger.
The “Sweetness Linger” rating for sucrose observed by this protocol is defined as 0. The Sweetness Linger of a 500 ppm of REBA control sample is defined as 5. Experimental samples were tasted by the same protocol, always allowing sufficient time between samples to ensure re-equilibration of the sensory system. Re-tasting of control samples during the course of the experiment was allowed and encouraged. […]
Sweet taste improving compositions were combined with a REBA solution to determine their effect on sweetness linger, Screening of the initial sample, or further dilutions, allowed identification of concentrations which were just above-threshold, herein defined as “near-threshold concentrations.” The near-threshold additive concentrations, a 6- to 100-fold higher higher additive concentration (depending on the off-taste intensity), and a mid-level additive concentration (halfway between the near-threshold and higher additive concentration) were evaluated to determine the effect on sweetness linger of a REBA solution. […]

Row | Rate of dissolution in H2O at 25° C. [1] | solubility in water at room temperature [2] [%] | Structure (SMILES) | sweetness linger ([3]; Example Set G: citric acid/potassium citrate composition equivalent to a diet lemon-lime beverage, 400 ppm REBA base, sweetness 3-4 min after water rinse) | sweetness linger ([3]; Example Set H: carbon-treated water with phosphoric acid (75%) to pH 2.4-2.5, 500 ppm REBA base) | Sweetness Linger rating ([3]; control ratings defined for the protocol)
1 | High (>35%/5 %/5 minutes | > 35.0 | C=C1C[C@@]23CC[C@H]4[C@@](C)(CCC[C@@]4(C)C(=O)O[C@@H]4O[C@H](CO)[C@@H](O)[C@H](O)[C@H]4O)[C@@H]2CC[C@]1(O[C@@H]1O[C@H](CO)[C@@H](O)[C@H](O[C@@H]2O[C@H](CO)[C@@H](O)[C@H](O)[C@H]2O)[C@H]1O[C@@H]1O[C@H](CO)[C@@H](O)[C@H](O)[C@H]1O)C3 [Form 4, rebaudioside A] |  |  | 
2 |  |  | C=C1C[C@@]23CC[C@H]4[C@@](C)(CCC[C@@]4(C)C(=O)O[C@@H]4O[C@H](CO)[C@@H](O)[C@H](O)[C@H]4O)[C@@H]2CC[C@]1(O[C@@H]1O[C@H](CO)[C@@H](O)[C@H](O[C@@H]2O[C@H](CO)[C@@H](O)[C@H](O)[C@H]2O)[C@H]1O[C@@H]1O[C@H](CO)[C@@H](O)[C@H](O)[C@H]1O)C3 [REBA, rebaudioside A] | 5 | 5 | 5
